Earlier results in PMC9014651 (Bioorganic Chemistry, 2022).

Tested on: coronavirus variants (B.1.1.7 and B.1.351)
Conditions: cited from earlier work

Question: Which “Effect on tested coronavirus variants in vitro” value does the source give for `Cc1ccc(NC(=O)c2ccc(CN3CCN(C)CC3)cc2)cc1Nc1nc(-c2cccnc2)cs1` [Masitinib] here?
Answer: The value was “effective”.
